According to patent US20240207396A1 (priority 2021, published 2024):

What was measured:
[1] = tested on: Th17 cells (cytokine IL-17F); settings: in words; after immunization vs. blank control group
Procedure: The effectiveness of the vaccine was studied by using an immunocompromised (neutropenia) mouse model. […] To investigate the T cell-mediated immune response, mouse blood was taken and detected for a change in cytokine IL-17F level in Th17 cells to evaluate the immunogenicity of chitosan oligosaccharide-carrier protein vaccine.
6-8-week-old Balb/c female mice were selected, and adaptively fed for 3-7 d. 20 g/L cyclophosphamide was prepared with normal saline, and the cyclophosphamide was injected intraperitoneally by body weight of 200 mg/kg. The number of neutrophils in the mouse blood was measured by a SYSMEX XT-2000i automatic blood analyzer after 3 days. If the number of the neutrophils was <500/mm^3, the experiment could be continued. After that, the cyclophosphamide was injected every 10 days at a dose of 150 mg/kg, which was maintained throughout the test period.
A normal saline blank control group, a KLH group, a chitosan oligosaccharide group, a chitosan oligosaccharide-KLH group in Example 6, a fluconazole group (as a positive control of a challenge test) were set up, with 10 mice in each group. At weeks 0, 2, 4 and 6 at the start of the experiment, the mice were injected subcutaneously from multiple points on the neck and back, with an injection amount of 2.5 mg/kg. The normal saline blank group was injected with normal saline, and the fluconazole group was not injected. […]

C. albicans = assay type: in vivo; settings: immunocompromised mice; for Survival rate: 7 days after fatal dose of C. albicans by tail vein at week 8; for Survival number after 7 days: fatal dose of C. albicans by tail vein at week 8, 20 mice per group, fluconazole 50 mg/kg d intragastric for 7 days

Compound | Change of proportion of intracellular IL-17F compared with blank control group [1] | Survival rate (C. albicans) | Survival number after 7 days (C. albicans)
keyhole limpet hemocyanin [KLH] | increased to a certain extent | 30% | 6
OC(Cn1cncn1)(Cn1cncn1)c1ccc(F)cc1F [Fluconazole, fluconazole, reference compound] |  | 50% | 10
